Test system: dogs
Test: Previous experiment in dogs treated with the same formulations
Format: in vivo, dog
Protocol: 4 days prior to dosing, formulation were prepared containing: (1) 8 mg insulin, 150 mg EDTA, 125 mg SBTI in 1 ml fish oil in a soft-gel capsule (SwissCup), (2). 8 mg insulin, 150 mg EDTA, 150000 KIU Aprotinin in 1 ml fish oil in a soft-gel capsule (SwissCup), (3) 8 mg insulin, 150 mg EDTA, 150000 KIU Aprotinin, 125 mg SBTI in 1 ml fish oil in a soft-gel capsule (SwissCup). The formulations were stored in the refrigerator (4° C.) until dosing.
Thus, the results regarding the reduction in blood glucose levels with insulin and a combination of protease inhibitors was unexpected.
Thus, the results regarding the reduction in blood C-peptide levels with insulin and a combination of protease inhibitors was unexpected.
The above described formulations are also active with 0.5 ml fish oil both in dogs and humans.

Question: For Aprotinin, which “reaction of dogs to Aprotinin” value is on record?
Answer: The value was “do not react”.

Source: US10058593B2, “Methods and compositions for oral administration of proteins” (Oramed Ltd., priority 2008, dated 2018)
